Results from patent US20250319021A1, “COMPOSITION OF HYDROGEL LOADED WITH HORMONE” (VITALTE LIFESCIENCES INC., priority 2024, published 2025).

Experiments:
[1] = T release rate comparison in saline incubation media; type: physicochemical; conditions: 2, 4 and 6 hours
Procedure: In order to compare the release rate results of hydrogel encapsulated T to pelleted T, larger gels had to be prepared as the T pellets which the hydrogels are intended to replace are 25 mg, where the E2 pellets are merely 6 mg. Thus, approximately 83 mg of hydrogel at 30% T loading and 1% HA were prepared. In order to achieve even or consistent crosslinking in these much larger hydrogel samples, Likarda's patented micromolds (shown in FIG. 21) were employed. After formation, the encapsulated T was removed from the molds and placed in tubes to be rotated for an hour. The encapsulated T hydrogels were then removed from the tubes and stored in Dulbecco's PBS buffer. The large hydrogel blocks encapsulating T were then tested and compared to 25 mg T pellets and micronized T powder.
The T powder was produced as a 2.5 mg/mL slurry in buffer to reach the near saturation point of T in the buffer. Samples of the T powder slurry were removed from only the top layer of the slurry fluid to avoid aspirating T particles in the slurry that may have precipitated at to the bottom. T pellets were collected directly from the vials in which they were stored. The 83 mg hydrogels containing 30% T were collected from Dulbecco's PBS buffer, rinsed, and dried. Each of the collected samples was then placed in a separate container of incubation media (saline in this instance) for the release studies. […]

[2] = cited from earlier work

SMILES	T release level / approximate saturation level of T in saline [1]	solubility in water compared to E2 [2]
C[C@]12CC[C@H]3[C@@H](CCC4=CC(=O)CC[C@@]43C)[C@@H]1CC[C@@H]2O [T powder, Testosterone]	about 1.5 mg/L	–
C[C@]12CC[C@H]3[C@@H](CCC4=CC(=O)CC[C@@]43C)[C@@H]1CC[C@@H]2O [Testosterone (T), Testosterone]	–	much higher solubility factor in water compared to E2
